From ChEMBL document CHEMBL3044820, “Evaluation of Benzenesulfonanilide Derivatives for the Control of Crucifers Clubroot” (1996)

Legend:
Format in all cases: functional
Plasmodiophora brassicae [1] = test: Fungicidal activity against clubroot disease causing Plasmodiophora brassicae infested Brassica campestris under greenhouse condition assessed as disease incidence at 4 kg a.i/ha treated to soil measured after 40 to 50 days
Plasmodiophora brassicae [2] = test: Fungicidal activity against clubroot disease causing Plasmodiophora brassicae infested Brassica campestris under greenhouse condition assessed as disease incidence at 0.5 kg a.i/ha treated to soil measured after 40 to 50 days
Plasmodiophora brassicae [3] = test: Fungicidal activity against clubroot disease causing Plasmodiophora brassicae infested Brassica campestris under greenhouse condition assessed as disease incidence at 2 kg a.i/ha treated to soil measured after 40 to 50 days

Work on Cc1ccc(S(=O)(=O)Nc2ccc(C(F)(F)F)cc2)cc1 yielded an Activity (Plasmodiophora brassicae [1]) of 26%, an Activity (Plasmodiophora brassicae [2]) of 0% and an Activity (Plasmodiophora brassicae [3]) of 26%.

For Cc1cc([N+](=O)[O-])ccc1NS(=O)(=O)c1cc(C(F)(F)F)ccc1Cl, the Activity (Plasmodiophora brassicae [1]) was >91%, the Activity (Plasmodiophora brassicae [2]) was 0% and the Activity (Plasmodiophora brassicae [3]) was >91%.

Cc1cc([N+](=O)[O-])ccc1NS(=O)(=O)c1cccc(C(F)(F)F)c1 was tested, and the Activity (Plasmodiophora brassicae [1]) was >91%, the Activity (Plasmodiophora brassicae [2]) was 0% and the Activity (Plasmodiophora brassicae [3]) was >91%.

For O=[N+]([O-])c1ccc(NS(=O)(=O)c2ccc(Cl)c(C(F)(F)F)c2)c(Cl)c1 [FLUSULFAMIDE], the Activity (Plasmodiophora brassicae [1]) was >91%, the Activity (Plasmodiophora brassicae [2]) was >91% and the Activity (Plasmodiophora brassicae [3]) was >91%.
